Source: patent US9370520B2, “Macrocyclic LRRK2 kinase inhibitors” (IPSEN PHARMA S.A.S., priority 2011, dated 2016)
Where two headings read alike, the source gives them in different places.

How the values were obtained:
truncated LRRK2 = target: T1, truncated LRRK2 (Homo sapiens, UniProt Q5S007); test: radiometric protein kinase assay (33PanQinase Activity Assay, Protocol 2), truncated LRRK2; assay type: biochemical
T1 construct: a truncated LRRK2 enzyme (GST tagged LRRK2 of amino acids 970-2527); GST; purchased Invitrogen Corporation
Procedure: (§1) The inhibition of LRRK2 and LRRK1 kinase was assessed using LRRK2 and LRRK1 recombinant protein in an in vitro peptide-based kinase assay.
A radiometric protein kinase assay (^33PanQinase® Activity Assay) is used for measuring the kinase activity. All assays are performed in 96-well FlashPlates™ from Perkin Elmer in a 50 μl reaction volume. The reaction cocktail is pipetted in 4 steps in the following order: • 10 μl of non-radioactive ATP solution (in H2O) • 25 μl of assay buffer/[γ-^33P]-ATP mixture • 5 μl of test sample in 10% DMSO • 10 μl of enzyme/substrate mixture
The kinase is obtained from Invitrogen Corporation.
The reaction cocktails were incubated at 30° C. for 60 minutes. The reaction was stopped with 50 μl of 2% (v/v) H3PO4, plates were aspirated and washed two times with 200 μl 0.9% (w/v) NaCl. Incorporation of ^33Pi (counting of “cpm”) was determined with a microplate scintillation counter.

[1] = target: T2, truncated LRRK2 (GST tagged LRRK2 of amino acids 970-2527) (Homo sapiens, UniProt Q5S007); test: LRRKtide 32P-ATP peptide kinase assay (Protocol 1), truncated LRRK2; assay type: biochemical; details: 10 μM ATP, 200 μM lrrktide
T2 construct: GST tagged LRRK2 of amino acids 970-2527; GST
Procedure: as §1
(§2) LRRK2 protein is prepared as described in Daniëls et al. ((2011) J Neurochem 116, 304-315.). HEK293T cells are transfected with pCHMWS-3xflag-LRRK2 plasmid using polyethyleneimine and lysed after 48-72 hours in lysis buffer (Tris 20 mM pH 7.5, NaCl 150 mM, EDTA 1 mM, Triton 1%, Glycerol 10%, protease inhibitor cocktail). Lysates are cleared by centrifugation at 20,000 g for 10 minutes and incubated with normal mouse IgGs bound to agarose beads to remove proteins aspecifically binding to agarose or mouse IgGs. After removal of the IgG bead slurry, lysates are incubated for 3 to 18 hours with flagM2 bound to agarose beads. Beads are washed 4 times with wash buffer (Tris 25 mM pH 7.5, NaCl 400 mM, Triton 1%) and rinsed in kinase buffer (Tris-HCl 25 mM pH 7.5, 10 mM MgCl2, 2 mM dithiothreitol (DTT), 0.02% triton, 5 mM beta-glycerophosphate, 0.1 mM Na3VO4). Proteins are eluted in 5 volumes of kinase buffer containing 100 μg/ml 3xflag peptide. For assays using purified protein bound to affinity resin, affinity beads are resuspended in an equal volume of kinase buffer unless otherwise indicated. Purity and concentration are assessed by SDS-PAGE (3-8% tris-acetate SDS gel) and Coomassie Brilliant Blue staining or silver staining. Alternatively, a truncated LRRK2 enzyme (GST tagged LRRK2 of amino acids 970-2527) and a truncated LRRK2-G2019S (GST tagged LRRK2-G2019S of amino acids 970-2527) are used.
(§3) For Irrktide phosphorylation, recombinant LRRK2 is incubated with 6 μCi of 32P-ATP (3000 Ci/mmol), 200 μM Irrktide, 10 μM ATP and compound or solvent per 40 μl reaction for 30 minutes at 30° C. Compounds are tested at concentrations ranging from […]; the final amount of DMSO in the kinase reaction is 1%. Reactions are stopped and spotted to P81 phosphocellulose paper and washed 4×10 minutes in 75 mM phosphoric acid. Lrrktide phosphorylation levels are measured via autoradiography. Kinase assays are performed for each condition in triplicate.
(§4) LRRKtide phosphorylation levels are plotted vs. the log of the compound concentration and inhibition curves are fitted from which IC50 values are derived.

[2] = target: T3, truncated LRRK2-G2019S (GST tagged LRRK2-G2019S of amino acids 970-2527) (Homo sapiens, UniProt Q5S007, G2019S); test: LRRKtide 32P-ATP peptide kinase assay (Protocol 1), truncated LRRK2-G2019S; assay type: biochemical; details: 10 μM ATP, 200 μM lrrktide
T3 construct: GST tagged LRRK2-G2019S of amino acids 970-2527; GST
Procedure: as §1, §2, §3, §4

[3] = not given; remark: listed apart in the source
full-length LRRK2 = target: T4, full-length LRRK2 (Homo sapiens, UniProt Q5S007); test: LRRKtide 32P-ATP peptide kinase assay (Protocol 1), full-length LRRK2; assay type: biochemical; details: 10 μM ATP, 200 μM lrrktide
T4 construct: full-length; made in house; host or cells: HEK293T
Procedure: as §1, §2
as §3, with “triplicate. […]” for “triplicate.”

[4] = Protocol 2, ATP 0.3 μM, substrate GSK3(14-27), read-out: IC50 for truncated LRRK2

T1 sequence (Q5S007 970-2527): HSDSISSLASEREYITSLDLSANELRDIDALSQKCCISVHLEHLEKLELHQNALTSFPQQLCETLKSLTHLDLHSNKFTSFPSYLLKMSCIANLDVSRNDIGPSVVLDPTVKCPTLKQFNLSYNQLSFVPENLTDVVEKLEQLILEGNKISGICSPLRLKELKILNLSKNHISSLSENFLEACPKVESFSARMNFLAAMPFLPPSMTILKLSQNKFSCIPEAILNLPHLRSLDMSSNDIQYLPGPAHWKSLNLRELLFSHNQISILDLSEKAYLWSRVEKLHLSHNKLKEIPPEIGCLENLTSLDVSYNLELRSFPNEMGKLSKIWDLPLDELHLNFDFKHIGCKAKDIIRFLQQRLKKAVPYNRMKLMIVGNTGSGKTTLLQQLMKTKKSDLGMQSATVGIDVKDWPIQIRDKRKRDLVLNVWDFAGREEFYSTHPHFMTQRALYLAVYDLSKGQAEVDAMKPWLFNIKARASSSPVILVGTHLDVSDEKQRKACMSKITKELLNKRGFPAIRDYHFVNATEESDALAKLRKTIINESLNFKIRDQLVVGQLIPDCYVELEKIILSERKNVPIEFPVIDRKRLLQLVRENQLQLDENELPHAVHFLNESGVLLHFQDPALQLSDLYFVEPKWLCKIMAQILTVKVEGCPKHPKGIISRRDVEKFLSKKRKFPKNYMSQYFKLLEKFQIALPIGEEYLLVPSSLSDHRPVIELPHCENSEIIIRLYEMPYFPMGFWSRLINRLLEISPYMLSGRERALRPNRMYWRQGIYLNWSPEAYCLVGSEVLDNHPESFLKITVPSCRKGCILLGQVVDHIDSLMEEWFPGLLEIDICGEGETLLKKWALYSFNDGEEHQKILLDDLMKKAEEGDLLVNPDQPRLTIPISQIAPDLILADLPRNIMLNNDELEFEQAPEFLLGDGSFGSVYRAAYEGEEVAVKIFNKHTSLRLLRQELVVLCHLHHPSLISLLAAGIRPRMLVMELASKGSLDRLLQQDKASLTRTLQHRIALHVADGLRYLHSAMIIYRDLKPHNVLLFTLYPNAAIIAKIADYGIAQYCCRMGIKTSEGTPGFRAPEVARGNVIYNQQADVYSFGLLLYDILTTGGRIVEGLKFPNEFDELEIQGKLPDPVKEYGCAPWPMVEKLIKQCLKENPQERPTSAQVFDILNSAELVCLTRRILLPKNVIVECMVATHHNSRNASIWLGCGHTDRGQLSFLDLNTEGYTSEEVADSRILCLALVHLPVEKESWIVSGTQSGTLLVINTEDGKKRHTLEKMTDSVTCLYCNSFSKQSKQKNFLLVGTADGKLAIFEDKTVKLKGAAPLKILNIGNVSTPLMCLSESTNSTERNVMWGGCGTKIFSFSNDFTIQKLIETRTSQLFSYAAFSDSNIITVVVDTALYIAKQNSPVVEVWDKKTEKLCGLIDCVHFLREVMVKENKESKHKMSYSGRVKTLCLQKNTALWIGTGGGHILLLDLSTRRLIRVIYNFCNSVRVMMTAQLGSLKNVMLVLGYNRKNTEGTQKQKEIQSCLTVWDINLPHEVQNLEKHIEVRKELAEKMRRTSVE
T2 sequence (Q5S007 970-2527): as above
T3 sequence (Q5S007 970-2527 G2019S): as the sequence (Q5S007 970-2527) above, with G1050S counted along it
T4 sequence (Q5S007 whole entry): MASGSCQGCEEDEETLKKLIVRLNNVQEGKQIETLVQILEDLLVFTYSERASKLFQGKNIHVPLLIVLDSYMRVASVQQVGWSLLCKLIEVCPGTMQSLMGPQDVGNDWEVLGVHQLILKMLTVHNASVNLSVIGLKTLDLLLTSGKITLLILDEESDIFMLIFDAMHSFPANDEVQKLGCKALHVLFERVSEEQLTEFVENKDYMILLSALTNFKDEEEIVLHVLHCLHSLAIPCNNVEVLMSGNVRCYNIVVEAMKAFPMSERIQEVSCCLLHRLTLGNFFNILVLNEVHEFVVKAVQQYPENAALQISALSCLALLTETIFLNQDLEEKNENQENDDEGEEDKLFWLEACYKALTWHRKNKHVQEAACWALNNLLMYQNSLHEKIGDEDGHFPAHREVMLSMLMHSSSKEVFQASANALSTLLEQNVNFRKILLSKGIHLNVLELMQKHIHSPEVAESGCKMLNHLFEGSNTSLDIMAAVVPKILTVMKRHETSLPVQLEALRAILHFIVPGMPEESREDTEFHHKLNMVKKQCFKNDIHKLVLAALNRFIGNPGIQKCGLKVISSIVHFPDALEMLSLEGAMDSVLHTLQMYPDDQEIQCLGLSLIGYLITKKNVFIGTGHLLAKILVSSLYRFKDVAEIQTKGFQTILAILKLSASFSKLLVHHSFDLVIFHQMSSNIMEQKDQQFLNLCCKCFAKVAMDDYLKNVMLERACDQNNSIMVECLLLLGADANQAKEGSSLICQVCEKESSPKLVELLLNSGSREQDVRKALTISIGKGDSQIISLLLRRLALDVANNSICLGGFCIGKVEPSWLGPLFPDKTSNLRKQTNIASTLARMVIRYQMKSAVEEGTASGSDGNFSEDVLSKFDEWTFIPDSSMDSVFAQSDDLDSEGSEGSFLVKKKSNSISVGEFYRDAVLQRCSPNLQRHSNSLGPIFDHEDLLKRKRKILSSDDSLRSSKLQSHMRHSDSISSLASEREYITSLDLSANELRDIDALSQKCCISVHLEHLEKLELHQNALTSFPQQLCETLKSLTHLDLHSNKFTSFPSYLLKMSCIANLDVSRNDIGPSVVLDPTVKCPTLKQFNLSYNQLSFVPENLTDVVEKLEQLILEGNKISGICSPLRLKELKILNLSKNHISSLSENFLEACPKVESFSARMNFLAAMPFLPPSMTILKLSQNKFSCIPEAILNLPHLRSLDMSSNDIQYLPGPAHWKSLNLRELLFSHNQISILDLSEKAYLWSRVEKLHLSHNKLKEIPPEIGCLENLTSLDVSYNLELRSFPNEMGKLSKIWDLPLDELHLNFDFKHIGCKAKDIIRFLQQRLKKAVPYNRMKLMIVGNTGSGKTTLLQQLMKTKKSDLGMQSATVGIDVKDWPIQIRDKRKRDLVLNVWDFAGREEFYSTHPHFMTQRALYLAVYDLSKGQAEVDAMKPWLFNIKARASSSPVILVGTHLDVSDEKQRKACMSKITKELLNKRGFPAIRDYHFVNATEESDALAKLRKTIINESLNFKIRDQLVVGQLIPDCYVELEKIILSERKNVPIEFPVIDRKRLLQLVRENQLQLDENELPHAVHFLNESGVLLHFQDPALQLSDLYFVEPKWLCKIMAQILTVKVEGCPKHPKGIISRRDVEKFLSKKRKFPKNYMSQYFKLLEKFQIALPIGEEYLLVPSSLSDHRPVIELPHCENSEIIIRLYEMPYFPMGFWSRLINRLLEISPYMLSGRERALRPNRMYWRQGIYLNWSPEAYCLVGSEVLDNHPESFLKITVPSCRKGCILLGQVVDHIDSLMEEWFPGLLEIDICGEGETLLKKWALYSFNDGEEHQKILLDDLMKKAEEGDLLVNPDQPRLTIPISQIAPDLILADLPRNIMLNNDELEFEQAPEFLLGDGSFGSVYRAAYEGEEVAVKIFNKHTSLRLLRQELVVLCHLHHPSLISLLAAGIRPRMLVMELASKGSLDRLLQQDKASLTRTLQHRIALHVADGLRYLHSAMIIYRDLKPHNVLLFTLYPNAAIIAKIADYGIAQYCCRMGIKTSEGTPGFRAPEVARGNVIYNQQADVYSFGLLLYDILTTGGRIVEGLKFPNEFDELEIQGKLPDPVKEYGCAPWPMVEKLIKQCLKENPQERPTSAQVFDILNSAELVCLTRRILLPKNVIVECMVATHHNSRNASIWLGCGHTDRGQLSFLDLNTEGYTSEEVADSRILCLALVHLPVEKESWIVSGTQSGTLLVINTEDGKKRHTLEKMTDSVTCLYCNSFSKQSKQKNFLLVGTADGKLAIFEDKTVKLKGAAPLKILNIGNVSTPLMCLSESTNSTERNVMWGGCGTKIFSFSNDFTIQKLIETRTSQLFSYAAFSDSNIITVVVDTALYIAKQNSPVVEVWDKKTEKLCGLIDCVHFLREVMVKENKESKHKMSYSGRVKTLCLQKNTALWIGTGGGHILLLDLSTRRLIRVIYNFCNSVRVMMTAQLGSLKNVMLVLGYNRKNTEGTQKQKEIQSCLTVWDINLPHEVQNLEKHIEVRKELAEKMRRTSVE

IC50 (truncated LRRK2; [4]) | Structure (SMILES) | other results
> 1000 nM | CC(C)N1CCNc2ccn3ncc(c3n2)-c2cccc(c2)OCC1=O [Example 44] | 
100 to 1000 nM | CN1CCN(CC(=O)N2CCNc3ccn4ncc(c4n3)-c3cccc(c3)OCC2)CC1 [Example 39] | 
> 1000 nM | CC(C)C(=O)N1CCNCc2cccc(c2)-c2cnn3ccc(nc23)NCC1 [Compound 53] | 
 | O=C(C1CC1)N1CCNc2ccn3ncc(c3n2)-c2cccc(c2)OCC1 [Example 1] | IC50 [1]: < 100 nM; IC50 [2]: < 100 nM; melting point: > 300 °C
< 100 nM | CN(C)C(=O)N1CCNc2ccn3ncc(c3n2)-c2cccc(c2)OCC1 [Example 11] | 
> 1000 nM | CN1CCCOc2cccc(c2)-c2cnn3ccc(nc23)NCCCC1=O [Compound 65] | 
< 100 nM | O=C(CCN1CCCC1)N1CCNc2ccn3ncc(c3n2)-c2cccc(c2)OCC1 [Example 40] | 
> 1000 nM | O=C1CNc2ccn3ncc(c3n2)-c2cccc(c2)OCCCN1 [Compound 57] | 
100 to 1000 nM | O=C(CN1CCOCC1)N1CCNc2ccn3ncc(c3n2)-c2cccc(c2)OCC1 [Example 36] | 
 | O=S1(=O)CCCOc2cccc(c2)-c2cnn3ccc(nc23)NCCN1 [Example 8] | melting point: 269 °C
100 to 1000 nM | O=C(N1CCNc2ccn3ncc(c3n2)-c2cccc(c2)OCC1)N1CCN(CCF)CC1 [Example 29] | 
100 to 1000 nM | O=C(C1CC1)N1CCNCc2cccc(c2)-c2cnn3ccc(nc23)NCC1 [Example 51] | 
< 100 nM | C=CC(=O)N1CCNc2ccn3ncc(c3n2)-c2cccc(c2)OCC1 [Compound 70] | melting point: > 300 °C
100 to 1000 nM | O=C(C1CC1)N1CCOc2cccc(c2)-c2cnn3ccc(nc23)N(CCO)CC1 [Compound 63] | 
100 to 1000 nM | COc1ccc2cc1OCCN(C(=O)C1CC1)CCNc1ccn3ncc-2c3n1 [Compound 66] | 
> 1000 nM | C[C@H]1NCc2cccc(c2)-c2cnn3ccc(nc23)NCCNC1=O [Compound 62] | 
< 100 nM | O=C(c1ccc[nH]1)N1CCNc2ccn3ncc(c3n2)-c2cccc(c2)OCC1 [Example 32] | 
100 to 1000 nM | O=C1CNc2cccc(c2)-c2cnn3ccc(nc23)NCCN1 [Example 49] | 
100 to 1000 nM | CCOC(=O)N1CCCNc2ccn3ncc(c3n2)-c2cccc(c2)OCC1 [Example 12] | 
> 1000 nM | O=C1CN(C(=O)C2CC2)CCNc2ccn3ncc(c3n2)-c2cccc(c2)N1 [Compound 67] | 
 | O=C1CNc2ccn3ncc(c3n2)-c2cccc(c2)OCCCCN1 | ring closure, yield of all isomers ([3]; from NCCCCOc1cccc(-c2cnn3ccc(NCC(=O)O)nc23)c1, amide bond, HBTU/DIPEA, DMF, 10.0 mM, 25.0 °C, 2.0 h): 19%; melting point: > 300 °C
< 100 nM | N#Cc1ccc2cc1OCCN(C(=O)C1CC1)CCNc1ccn3ncc-2c3n1 [Example 42] | 
< 100 nM | CNCC(=O)N1CCNc2ccn3ncc(c3n2)-c2cccc(c2)OCC1 [Example 37] | 
100 to 1000 nM | CS(=O)(=O)N1CCNc2ccn3ncc(c3n2)-c2cccc(c2)OCC1 [Example 14] | 
 | O=C1CCCOc2cccc(c2)-c2cnn3ccc(nc23)NCCN1 [Example 2] | IC50 [1]: 100 to 1000 nM; IC50 [2]: 100 to 1000 nM; melting point: > 300 °C; IC50 (full-length LRRK2): < 100 nM
> 1000 nM | CN(C)CCC(=O)N1CCNCc2cccc(c2)-c2cnn3ccc(nc23)NCC1 [Compound 56] | 
 | O=C(CF)N1CCNc2ccn3ncc(c3n2)-c2cccc(c2)OCC1 [Example 50] | IC50 (truncated LRRK2): < 100 nM
100 to 1000 nM | CN(C)CCN1CCN(C(=O)C2CC2)CCOc2cccc(c2)-c2cnn3ccc1nc23 [Example 48] | 

IC50 (truncated LRRK2; [4]) | Structure (SMILES) | other results
> 1000 nM | CCCC(=O)N1CCNCc2cccc(c2)-c2cnn3ccc(nc23)NCC1 [Compound 55] | 
< 100 nM | NC(=O)CN1CCNc2ccn3ncc(c3n2)-c2cccc(c2)OCC1 [Example 13] | 
100 to 1000 nM | COCCC(=O)N1CCNc2ccn3ncc(c3n2)-c2cccc(c2)OCC1 [Example 31] | 
100 to 1000 nM | COCCC(=O)N1CCNCc2cccc(c2)-c2cnn3ccc(nc23)NCC1 [Compound 54] | 
< 100 nM | CCC(=O)N1CCNc2cccc(c2)-c2cnn3ccc(nc23)NCC1 [Example 17] | 
 | O=C1CNc2ccn3ncc(c3n2)-c2cccc(c2)OCCOCCN1 [Compound 72] | ring closure, yield of all isomers ([3]; from NCCOCCOc1cccc(-c2cnn3ccc(NCC(=O)O)nc23)c1, amide bond, HBTU/DIPEA, DMF, 10.0 mM, 25.0 °C, 2.0 h): 30%; melting point: 272.5 °C
100 to 1000 nM | O=S(=O)(C1CC1)N1CCNc2ccn3ncc(c3n2)-c2cccc(c2)OCC1 [Example 34] | 
100 to 1000 nM | CC(=O)N1CCNCc2cccc(c2)-c2cnn3ccc(nc23)NCC1 [Example 52] | 
> 1000 nM | C[C@@H]1NCc2cccc(c2)-c2cnn3ccc(nc23)NCCNC1=O [Compound 64] | 
> 1000 nM | CN1CC(=O)NCCNc2ccn3ncc(c3n2)-c2cccc1c2 [Compound 61] | 
 | O=C1CCNc2ccn3ncc(c3n2)-c2cc(F)cc(c2)OCCN1 | ring closure, yield of all isomers ([3]; from NCCOc1cc(F)cc(-c2cnn3ccc(NCCC(=O)O)nc23)c1, amide bond, HBTU/DIPEA, DMF, 28.6 mM, 25.0 °C, 1.0 h): 18%
< 100 nM | O=C(C1CC1)N1CCNc2cccc(c2)-c2cnn3ccc(nc23)NCC1 [Example 35] | 
100 to 1000 nM | O=C1CCCNc2ccn3ncc(c3n2)-c2cccc(c2)OCCCN1 [Example 43] | 
100 to 1000 nM | CN1CCNc2ccn3ncc(c3n2)-c2cccc(c2)OCCCS1(=O)=O [Example 47] | 
> 1000 nM | NC(=O)c1cc2cc(c1)-c1cnn3ccc(nc13)NCCN(C(=O)C1CC1)CCO2 [Compound 69] | melting point: > 300 °C
< 100 nM | O=C(c1cocn1)N1CCNc2ccn3ncc(c3n2)-c2cccc(c2)OCC1 [Example 33] | 
< 100 nM | O=C(CCF)N1CCNc2ccn3ncc(c3n2)-c2cccc(c2)OCC1 [Example 10] | 
100 to 1000 nM | COCCC(=O)N1CCCN(C)c2cccc(c2)-c2cnn3ccc(nc23)NCC1 [Example 19] | 
100 to 1000 nM | O=C1NCCN(C(=O)C2CC2)CCNc2ccn3ncc(c3n2)-c2cccc1c2 [Example 45] | 
> 1000 nM | O=C1CCNCc2cccc(c2)-c2cnn3ccc(nc23)NCCN1 [Compound 59] | 
< 100 nM | NC(=O)N1CCNc2ccn3ncc(c3n2)-c2cccc(c2)OCC1 [Example 38] | 
< 100 nM | CN1CCC(=O)NCCNc2ccn3ncc(c3n2)-c2cccc(c2)C1 [Compound 60] | 
 | O=C(CCO)N1CCNc2ccn3ncc(c3n2)-c2cccc(c2)OCC1 [Example 4] | IC50 [1]: < 100 nM; IC50 [2]: < 100 nM; melting point: > 300 °C
> 1000 nM | O=C1CCC(=O)Nc2cccc(c2)-c2cnn3ccc(nc23)OCCCN1 [Compound 68] | melting point: 295.1 °C
 | CCC(=O)N1CCNc2ccn3ncc(c3n2)-c2cccc(c2)N(C)CC1 [Compound 71] | melting point: > 300 °C
 | COC(=O)c1cc2cc(c1)-c1cnn3ccc(nc13)N(C(=O)OC(C)(C)C)CCN(C(=O)OC(C)(C)C)CCO2 | ring closure, yield of all isomers ([3]; from COC(=O)c1cc(O)cc(-c2cnn3ccc(N(CCN(CCO)C(=O)OC(C)(C)C)C(=O)OC(C)(C)C)nc23)c1, ether bond, DIAD/PPh3, toluene, 8.7 mM, 90.0 °C, 3.5 h): 89%
< 100 nM | CN(C)CCC(=O)N1CCNc2ccn3ncc(c3n2)-c2cccc(c2)OCC1 [Example 41] | 

Structure (SMILES) | IC50 (truncated LRRK2; [4]) | other results
CN(C)CCN1CCN(C)c2ccn3ncc(c3n2)-c2cccc(c2)OCC1=O [Compound 58] | > 1000 nM | 
CN(C)CCN1CCNc2ccn3ncc(c3n2)-c2cccc(c2)OCC1=O [Example 46] | > 1000 nM | 
